Consider 9 compounds from patent publication US7618983B2, “Bicyclic triazole α4 integrin inhibitors” (Janssen Pharmaceutica, N.V., priority 2004, dated 2009).

Like-named read-outs stand apart in the source and are kept apart here.

In one assay the target is T1, human α4β7 integrin (Homo sapiens, UniProt P13612+P26010).
T1 construct: expressed in transfected cells; host or cells: K562 cells, stably transfected
T1 sequence (P13612 34-1032): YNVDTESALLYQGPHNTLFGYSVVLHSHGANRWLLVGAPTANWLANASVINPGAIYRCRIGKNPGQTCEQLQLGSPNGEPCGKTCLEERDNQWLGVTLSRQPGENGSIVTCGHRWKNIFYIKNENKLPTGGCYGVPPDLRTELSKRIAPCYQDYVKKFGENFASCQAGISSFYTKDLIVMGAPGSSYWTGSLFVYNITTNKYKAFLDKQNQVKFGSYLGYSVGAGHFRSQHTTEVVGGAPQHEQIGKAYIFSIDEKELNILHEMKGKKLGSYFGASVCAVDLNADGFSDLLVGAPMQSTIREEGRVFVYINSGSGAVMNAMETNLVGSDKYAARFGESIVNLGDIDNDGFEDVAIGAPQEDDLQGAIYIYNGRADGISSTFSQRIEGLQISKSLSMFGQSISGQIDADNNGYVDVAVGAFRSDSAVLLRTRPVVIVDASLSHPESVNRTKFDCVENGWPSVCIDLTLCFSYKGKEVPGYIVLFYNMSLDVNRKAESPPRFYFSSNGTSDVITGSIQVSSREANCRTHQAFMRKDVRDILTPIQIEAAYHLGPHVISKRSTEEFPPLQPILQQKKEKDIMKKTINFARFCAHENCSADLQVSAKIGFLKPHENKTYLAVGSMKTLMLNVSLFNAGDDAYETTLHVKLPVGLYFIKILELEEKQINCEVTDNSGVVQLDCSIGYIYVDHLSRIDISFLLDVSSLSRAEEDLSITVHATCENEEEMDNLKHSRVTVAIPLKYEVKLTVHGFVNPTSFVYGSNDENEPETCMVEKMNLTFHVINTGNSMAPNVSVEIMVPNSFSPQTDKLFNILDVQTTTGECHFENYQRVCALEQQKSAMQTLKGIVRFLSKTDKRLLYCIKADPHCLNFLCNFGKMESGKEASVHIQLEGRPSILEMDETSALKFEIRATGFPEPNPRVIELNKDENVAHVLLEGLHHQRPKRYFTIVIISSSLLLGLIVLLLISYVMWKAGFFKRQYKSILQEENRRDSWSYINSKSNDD
T1 sequence (P26010 20-798): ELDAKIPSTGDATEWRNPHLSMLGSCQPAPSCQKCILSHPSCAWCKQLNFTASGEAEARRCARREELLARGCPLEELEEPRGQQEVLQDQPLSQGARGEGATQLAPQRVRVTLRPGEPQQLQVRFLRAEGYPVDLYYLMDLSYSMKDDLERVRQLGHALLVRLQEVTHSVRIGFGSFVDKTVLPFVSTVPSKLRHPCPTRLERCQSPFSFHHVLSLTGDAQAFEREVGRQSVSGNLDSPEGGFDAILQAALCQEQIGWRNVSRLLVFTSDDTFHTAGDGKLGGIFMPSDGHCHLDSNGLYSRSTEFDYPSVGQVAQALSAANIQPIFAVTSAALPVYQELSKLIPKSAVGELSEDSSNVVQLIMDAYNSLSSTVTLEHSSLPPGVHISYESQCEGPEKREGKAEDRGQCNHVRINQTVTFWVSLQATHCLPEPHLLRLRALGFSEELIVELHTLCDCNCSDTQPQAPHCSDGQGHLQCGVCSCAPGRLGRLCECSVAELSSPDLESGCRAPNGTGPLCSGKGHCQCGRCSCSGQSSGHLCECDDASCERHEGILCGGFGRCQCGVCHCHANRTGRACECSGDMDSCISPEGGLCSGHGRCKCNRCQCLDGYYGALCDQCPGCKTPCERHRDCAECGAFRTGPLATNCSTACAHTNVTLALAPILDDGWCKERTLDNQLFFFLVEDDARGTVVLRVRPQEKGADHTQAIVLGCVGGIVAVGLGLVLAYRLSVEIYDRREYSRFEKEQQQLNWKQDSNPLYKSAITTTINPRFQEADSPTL
In words: α4β7-K562 Cell Adhesion Assay (α4β7 Mediated Adhesion/MAdCAM-1). The assay is classed as cell-based. To be noted: K562 cells expressing human α4β7 adhering to FLAG-hMAdCAM-1, 1 mM Mn2+; read-out: α4β7, Madcam IC50. The protocol: α4β7-K562 Cell Adhesion Assay (α4β7 Mediated Adhesion/MAdCAM-1)
M2 anti-FLAG antibody coated 96-well plates (Sigma) were coated for 1 hour at 4° C. with 2-8 μl/well recombinant FLAG-hMAdCAM-1 contained in 100 μL of Dulbecco's PBS, pH 7.4, with 1% BSA and 1 mM Mn^2+ (PBS-BSA-Mn). Plates were washed once with PBS-BSA-Mn. Buffer was removed and compounds to be tested (50 μL) were added at 2 times concentration. Stably transfected K562 cells expressing human α4β7 integrin, (50 μL at 2×10^6/mL) that had been labeled with 100 μg/mL carboxymethyl fluorescein diacetate succinimidyl ester (CFDA-SE; Molecular Probes) for 15 min at 37° C. were added to each well and allowed to adhere for 1 h at room temperature. Plates were washed 4 times in PBS-BSA-Mn and then cells were lysed for 2 minutes by addition of 100 μL of PBS without Ca, Mg supplemented with 0.1 M NaOH. The plate was read on a 96-well fluorescent plate reader at 485 nm excitation and 530 nm emission.

For assay [1], the target named is T2, α4β1 (Homo sapiens, UniProt P05556+P13612). Briefly: Ramos Cell Adhesion Assay (α4β1 Mediated Adhesion/VCAM-1). Format: cell-based. The arrangement: Ramos Cell Adhesion Assay (α4β1 Mediated Adhesion/VCAM-1); endogenous in cells; host or cells: Ramos cells. As to conditions: Ramos cells adhering to recombinant hVCAM-1; read-out: α4β1 IC50. As for the experimental part: Ramos Cell Adhesion Assay (α4β1 Mediated Adhesion/VCAM-1)
Immulon 96 well plates (Dynex) were coated with 100 μL recombinant hVCAM-1 at 4.0 μg/mL in 0.05 M NaCO3 buffer pH 9.0 overnight at 4° C. (R&D Systems). Plates were washed 3 times in PBS with 1% BSA and blocked for 1 h @ room temperature in this buffer. PBS was removed and compounds to be tested (50 μL) were added at 2× concentration. Ramos cells, (50 μL at 2×10^6/mL) labeled with 5 μM Calcein AM (Molecular Probes) for 1 h at 37° C., were added to each well and allowed to adhere for 1 h at room temperature. Plates were washed 3× in PBS+1% BSA and cells were lysed for 15 minutes in 100 μL of 1 M Tris pH 8.0 with 1% SDS. The plate was read at 485 nm excitation and 530 nm emission.

The target of assay [2] is T2, α4β1. As to conditions: cited from earlier work.
In assay [3] the test system is oxazolone-induced contact hypersensitivity. To be noted: 6 mg/kg, sc; compared with α4 antibody PS/2; cited from earlier work.
In assay [4] the test system is heterotopic heart allograft. To be noted: hyperlipidemic rabbit; cited from earlier work.

T2 sequence (P05556 21-798, one chain of several): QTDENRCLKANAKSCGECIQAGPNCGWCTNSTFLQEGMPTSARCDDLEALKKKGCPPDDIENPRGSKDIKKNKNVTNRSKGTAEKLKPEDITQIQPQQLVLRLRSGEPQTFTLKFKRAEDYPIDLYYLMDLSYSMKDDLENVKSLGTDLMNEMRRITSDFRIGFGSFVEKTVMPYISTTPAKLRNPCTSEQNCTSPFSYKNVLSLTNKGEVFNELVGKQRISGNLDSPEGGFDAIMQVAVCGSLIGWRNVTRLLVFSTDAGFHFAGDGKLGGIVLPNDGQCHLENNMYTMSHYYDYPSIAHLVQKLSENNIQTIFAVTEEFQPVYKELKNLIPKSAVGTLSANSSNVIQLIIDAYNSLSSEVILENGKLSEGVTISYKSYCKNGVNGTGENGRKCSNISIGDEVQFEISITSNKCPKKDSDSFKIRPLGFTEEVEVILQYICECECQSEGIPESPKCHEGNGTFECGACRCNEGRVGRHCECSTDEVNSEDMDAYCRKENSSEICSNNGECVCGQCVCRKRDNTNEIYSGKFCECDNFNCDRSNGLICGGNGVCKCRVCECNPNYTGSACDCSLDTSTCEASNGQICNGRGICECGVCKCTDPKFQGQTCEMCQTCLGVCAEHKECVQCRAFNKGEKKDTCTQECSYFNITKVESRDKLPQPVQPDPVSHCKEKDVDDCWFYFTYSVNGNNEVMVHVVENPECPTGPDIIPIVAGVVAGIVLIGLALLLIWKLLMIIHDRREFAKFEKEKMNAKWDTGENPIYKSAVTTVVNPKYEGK

As usually defined, the IC50 is the midpoint of a concentration-inhibition curve. With `COc1cccc(OC)c1-c1ccc(C[C@H](NC(=O)[C@@H]2CCc3nnc(Cc4ccccc4)n32)C(=O)O)cc1` [Cpd 13, 2-(S)-[(3-Benzyl-6,7-dihydro-5H-pyrrolo[2,1-c][1,2,4]triazole-5-(S)-carbonyl)-amino]-3-(2′,6′-dimethoxy-biphenyl-4-yl)-propionic acid], the IC50 was 320 nM at human α4β7 integrin and 1190 nM on α4β1 [1].

With `COc1cccc(OC)c1-c1ccc(C[C@H](NC(=O)[C@@H]2CCc3nnc(Cc4ccsc4)n32)C(=O)O)cc1` [Cpd 15, 3-(2′,6′-Dimethoxy-biphenyl-4-yl)-2-(S)-[(3-thiophen-3-ylmethyl-6,7-dihydro-5H-pyrrolo[2,1-c][1,2,4]triazole-5-(S)-carbonyl)-amino]-propionic acid], the IC50 came to 90 nM at human α4β7 integrin and 710 nM at α4β1 [1].

Regarding `COc1cccc(OC)c1-c1ccc(CC(NC(=O)C2CCc3nnc(Cc4c[nH]c5ccccc45)n32)C(=O)O)cc1` (stereo not shown) [Cpd 16, 3-(2′,6′-Dimethoxy-biphenyl-4-yl)-2-{[3-(1H-indol-3-ylmethyl)-6,7-dihydro-5H-pyrrolo[2,1-c][1,2,4]triazole-5-carbonyl]-amino}-propionic acid], the IC50 is 40 nM at human α4β7 integrin and greater than 5000 nM at α4β1 [1].

Regarding `COc1cnn(C)c(=O)c1-c1ccc(C[C@H](NC(=O)[C@@H]2CCc3nnc(Cc4ccccc4)n32)C(=O)O)cc1` [Cpd 17, 2-(S)-[(3-Benzyl-6,7-dihydro-5H-pyrrolo[2,1-c][1,2,4]triazole-5-(S)-carbonyl)-amino]-3-[4-(5-methoxy-2-methyl-3-oxo-2,3-dihydro-pyridazin-4-yl)-phenyl]-propionic acid], the IC50 at human α4β7 integrin amounted to 400 nM; on α4β1 [1], 640 nM.

`O=C(Nc1ccc(C[C@H](NC(=O)[C@@H]2CCc3n[nH]c(=O)n32)C(=O)O)cc1)c1c(Cl)cccc1Cl` [Cpd 18, 3-[4-(2,6-Dichloro-benzoylamino)-phenyl]-2-(S)-[(3-oxo-2,5,6,7-tetrahydro-3H-pyrrolo[2,1-c][1,2,4]triazole-5-(S)-carbonyl)-amino]-propionic acid]: the IC50 amounted to 90 nM at human α4β7 integrin and 850 nM at α4β1 [1].

Turning to `O=C(Nc1ccc(C[C@H](NC(=O)[C@@H]2CCc3nn(Cc4ccccc4)c(=O)n32)C(=O)O)cc1)c1c(Cl)cccc1Cl` [Cpd 19, 2-(S)-[(2-Benzyl-3-oxo-2,5,6,7-tetrahydro-3H-pyrrolo[2,1-c][1,2,4]triazole-5-(S)-carbonyl)-amino]-3-[4-(2,6-dichloro-benzoylamino)-phenyl]-propionic acid], the results for the concentration for half-maximal inhibition (IC50) on human α4β7 integrin and on α4β1 [1] were 200 nM and greater than 5000 nM, respectively.

For the compound `O=C(Nc1ccc(C[C@H](NC(=O)[C@@H]2CCc3n[nH]c(=O)n32)C(=O)O)cc1)c1c(Cl)cncc1Cl` [Cpd 20, 3-{4-[(3,5-Dichloro-pyridine-4-carbonyl)-amino]-phenyl}-2-(S)-[(3-oxo-2,5,6,7-tetrahydro-3H-pyrrolo[2,1-c][1,2,4]triazole-5-(S)-carbonyl)-amino]-propionic acid], the figures for the IC50 at human α4β7 integrin and at α4β1 [1] were 50 nM and 450 nM, respectively.

Regarding `O=C(Nc1ccc(C[C@H](NC(=O)[C@@H]2CCc3nn(Cc4ccccc4)c(=O)n32)C(=O)O)cc1)c1c(Cl)cncc1Cl` [Cpd 21, 2-(S)-[(2-Benzyl-3-oxo-2,5,6,7-tetrahydro-3H -pyrrolo[2,1-c][1,2,4]triazole-5-(S)-carbonyl)-amino]-3-{4-[(3,5-dichloro-pyridine-4-carbonyl)-amino]-phenyl}-propionic acid], the IC50 is 780 nM at human α4β7 integrin and greater than 5000 nM on α4β1 [1].

Take Phenylacetyl-Leu-Asp-Phe-D-Pro-NH2: the IC50 on α4β1 [2] was 2000 nM. In addition, the “efficacy in contact hypersensitivity” value in assay [3] is reported as “efficacy similar to the α4 antibody PS/2”. In assay [4], the “efficacy in heart allograft model” value is listed as “effective”.
